Results from the OPERA property sets (Mansouri et al. 2018).

Settings: for log10 BCF / log10 biotransformation half-life (days): fish

SMILES | melting point | boiling point | further results
CC(=O)NC(Cc1ccccc1)C(=O)O (stereo in doubt) | 172 °C | – | –
Cc1cccc(O)c1O | 68 °C | 241 °C | –
CC1(C)CCCC1 | -69.8 °C | 87.5 °C | log10 biodegradation half-life (days): 1.28; log10 vapour pressure (mmHg): 1.88
CCCCCCCF | -73 °C | 118 °C | log10 vapour pressure (mmHg): 1.26
O=C1CCC(=O)N1I | 204 °C | – | –
C[N+](C)(C)c1ccccc1.[I-] | 224 °C | – | –
Cc1cc(C)c(Br)c(C)c1Br | 65.5 °C | 285 °C | –
C=CCF | – | -3 °C | –
CC(=O)OC(OC(C)=O)c1ccco1 | 53.3 °C | 220 °C | –
C[C@H](CC(=O)O)[C@H]1CC[C@H]2[C@@H]3CC[C@@H]4CCCC[C@]4(C)[C@H]3CC[C@]12C | 177 °C | – | –
FC(F)(F)c1ccc(Cl)nc1 | 33 °C | 153 °C | –
C=CCC(C(=O)OCC)C(=O)OCC | – | 222 °C | –
FC(F)(F)c1cccc(C(F)(F)F)c1 | – | 116 °C | ready biodegradability: not readily biodegradable
C[Si]1(C)O[Si](C)(C)O[Si](C)(C)O[Si](C)(C)O[Si](C)(C)O[Si](C)(C)O[Si](C)(C)O[Si](C)(C)O[Si](C)(C)O1 | – | – | log10 vapour pressure (mmHg): -4.75
COc1ccc(CCC(C)=O)cc1 | 8 °C | – | –
CCCO[Si](OCCC)(OCCC)OCCC | – | 226 °C | –
CC=NNc1ccccc1 | 99.5 °C | – | –
O=C1c2ccccc2C(=O)c2c(Br)cccc21 | 186 °C | – | –
CC/C=C/CCCCC | – | 148 °C | –
CCc1ccc(CC)c(CC)c1 | – | 218 °C | –
CC(C)CCOC(=O)C(C)O (stereo unspecified) | – | 202 °C | –
c1ccc2ocnc2c1 | 31 °C | 182 °C | –
C=C1CCO[C@]2([C@H](O)[C@@](C)(O)CO)NC(=O)[C@@]1(O)NC2=O | 188 °C | – | –
Oc1c(Cl)c(Cl)c(Cl)c(Cl)c1Cl | 174 °C | 310 °C | log10 Henry constant (atm·m³/mol): -7.61; log10 Koc (L/kg): 4.3; log10 vapour pressure (mmHg): -3.96; ready biodegradability: not readily biodegradable; log10 BCF: 2.66; log10 biotransformation half-life (days): -0.2
CC(CO)CC(F)(F)F (stereo unspecified) | – | 132 °C | –
CC(=O)[C@@]1(O)CC[C@H]2[C@@H]3C[C@H](C)C4=CC(=O)C=C[C@]4(C)[C@@]3(F)[C@@H](O)C[C@@]21C | 297 °C | – | –

SMILES | melting point | boiling point | further results
CCOC(=O)C(CC)C(=O)OCC | – | 208 °C | –
CC[C@H](C)[C@@H](C)[C@@H](C)O | – | 166 °C | –
CC(Cl)(Cl)C(=O)OCCOc1cc(Cl)c(Cl)cc1Cl | 49.5 °C | – | –
O=C(c1ccccc1)c1cccc(Br)c1 | 81 °C | – | –
COc1cccc2cccnc12 | 49.5 °C | 283 °C | –
O=C=Nc1cccc([N+](=O)[O-])c1 | 51 °C | – | –
CCCC(=O)O[C@]1(C(=O)CCl)[C@@H](C)C[C@H]2[C@@H]3CCC4=CC(=O)C=C[C@]4(C)[C@@]3(F)C(=O)C[C@@]21C | 95 °C | – | –
Nc1cccc2c1C(=O)c1ccccc1C2=O | 254 °C | – | log10 vapour pressure (mmHg): -8.3; ready biodegradability: not readily biodegradable; log10 BCF: 1.98; log10 biotransformation half-life (days): -0.59
C#CC(C)(C)NC(=O)c1ccc(Cl)cc1 | – | – | log10 Koc (L/kg): 1.9
CCOC(=O)CBr | – | 168 °C | –
CCCCCCCCCCCCCCCCCCOO | 49.5 °C | – | –
CN1[C@@H]2CCC[C@H]1CC2 | – | 166 °C | –
ClC(Cl)C(Cl)(Cl)C(Cl)(Cl)Cl | 29.4 °C | 248 °C | –
CC(CN(C)C)CN1c2ccccc2Sc2ccccc21 (stereo unspecified) | 68 °C | – | –
O=[N+]([O-])CCc1ccccc1 | -23 °C | 250 °C | –
CC1CCCS1 (stereo unspecified) | -101 °C | 134 °C | –
COc1ccc(C(=O)c2ccccc2)cc1 | 61.5 °C | 355 °C | –
O=C(Cl)c1ccccc1C(=O)Cl | 15.5 °C | 281 °C | log10 vapour pressure (mmHg): -1.79
CN1C2CCC1CC(=O)C2 | 43 °C | 227 °C | –
C=CC(=O)OC | -76.5 °C | 80.2 °C | log10 vapour pressure (mmHg): 1.94; ready biodegradability: readily biodegradable
COC1(C)CC(c2ccccc2)c2c(c3ccccc3oc2=O)O1 (stereo unspecified) | 166 °C | – | –
CCCCCCCCC=CCCCCCCCC(=O)N(C)CCS(=O)(=O)[O][Na] | – | – | ready biodegradability: readily biodegradable
CN(C)c1cccc([N+](=O)[O-])c1 | 60.5 °C | 282 °C | –
Cc1cc(Cl)ccc1OCCCC(=O)O | 100 °C | – | log10 Koc (L/kg): 2.73; log10 vapour pressure (mmHg): -6.36
Oc1cc(Cl)cc(Br)c1 | 70 °C | 256 °C | –
Nc1ccc2c3c(cccc13)-c1ccccc1-2 | 116 °C | – | –

SMILES | melting point | boiling point | further results
C#C[C@]1(O)C=C[C@H]2[C@@H]3CCC4=CC(=O)CC[C@@H]4[C@H]3CC[C@@]21CC | 198 °C | – | –
IC(I)(I)I | 171 °C | – | –
COP(=S)(OC)SCN1C(=O)c2ccccc2C1=O | 72 °C | – | log10 Koc (L/kg): 2.91; log10 vapour pressure (mmHg): -6.31; log10 BCF: 0.26
CC=CCCC=CC | -76 °C | 124 °C | –
CC(C)c1ccccc1O | 15.5 °C | 214 °C | log10 vapour pressure (mmHg): -1
CN1CC(C(=O)O)CC1=O (stereo unspecified) | 152 °C | – | –
CC(C)(C(=O)c1cccnc1)c1cccnc1 | 50.5 °C | – | –
CC(C)=CCC/C(C)=C/C=C/C(C)=C/C=C/C(C)=C/C=C/C=C(C)/C=C/C=C(C)/C=C/C=C(\C)CCCC(C)(C)O | 171 °C | – | –
Cc1cc(-c2cc(C)c(OCC3CO3)c(C)c2)cc(C)c1OCC1CO1 (stereo unspecified) | – | – | ready biodegradability: not readily biodegradable
CC(C)=CC(C)(C)C | -106 °C | 105 °C | log10 vapour pressure (mmHg): 1.56
CC(C)(Cl)C=O | – | 90 °C | –
COCC(=NOCC(=O)OC)c1cc(Oc2ccc(C(F)(F)F)cc2Cl)ccc1[N+](=O)[O-] | 58 °C | – | –
Cc1nccs1 | – | 128 °C | –
Sc1ccc(Br)cc1 | 73 °C | 230 °C | –
CCCCCCCCCCCCCCCCC | 22 °C | 302 °C | log10 biodegradation half-life (days): 1.3; log10 vapour pressure (mmHg): -3.64; ready biodegradability: readily biodegradable
Oc1cc(Br)cc(Br)c1 | 81 °C | 274 °C | –
CC[C@@H](CO)NC(=O)[C@@H]1C=C2c3cccc4c3c(cn4C)C[C@H]2N(C)C1 | 195 °C | – | –
N[C@@H](CCC(=O)N[C@@H](CS)C(=O)NCC(=O)O)C(=O)O | 195 °C | – | –
CCOP(=S)(NC(C)CC)Oc1cc(C)ccc1[N+](=O)[O-] (stereo unspecified) | – | – | log10 BCF: 2.46; log10 biotransformation half-life (days): -0.2
COC(=O)CCCBr | – | 186 °C | –
N#CCc1ccc(N)cc1 | 46 °C | 312 °C | –
O=C(CCc1ccccc1)CCc1ccccc1 | 13.5 °C | 352 °C | –
CCCCCCc1ccc2ccccc2c1 | -3 °C | 324 °C | –
C[C@H](Oc1ccccc1)C(=O)O | 118 °C | 266 °C | –
C[C@@H](S)C(=O)O | 12 °C | – | –
CC(C)(C)c1ccc2cc3ccccc3cc2c1 | 147 °C | – | log10 vapour pressure (mmHg): -6.19

SMILES | melting point | boiling point | further results
COc1ccccc1N=Nc1c(O)ccc2ccccc12 | 183 °C | – | –
C=CSC=C | 20 °C | 84 °C | –
Nc1cc2ccccc2cc1C(=O)O | 216 °C | – | –
CCCC(C(=O)OCC)C(=O)OCC | – | 221 °C | –
CCCCCC[Si](O)(CCCCCC)CCCCCC | – | – | log10 BCF: 2.7; log10 biotransformation half-life (days): 0.04
COc1cccc(OC)n1 | – | 179 °C | –
CCCC(C)(C)C(C)=O | – | 149 °C | –
CCN(CC)CCCN | – | 168 °C | –
FC(F)=C(F)F | -142 °C | -75.9 °C | log10 vapour pressure (mmHg): 4.39
CB(C)C | -162 °C | -20.2 °C | –
Cc1ccc(CCO)cc1 | – | 244 °C | –
C=Cc1ccc(C)cc1 | -34.1 °C | 173 °C | log10 vapour pressure (mmHg): 0.258; log10 BCF: 1.5
Clc1ccc2ncccc2c1 | 43.8 °C | 263 °C | –
CNC[C@H](O)c1ccccc1 | 44 °C | – | –
OCCOCCO | -10.4 °C | 246 °C | log10 vapour pressure (mmHg): -2.24; ready biodegradability: readily biodegradable
Cc1cc(N(C)C)ccc1N=Nc1ccccc1 | 68 °C | – | –
Cc1cc(Cl)cc(Cl)c1Cl | 45.5 °C | 230 °C | –
O=C(OCC(=O)N1CCC(O)CC1)c1ccccc1 | 122 °C | – | –
CCOC(=O)c1ccccc1O | 1 °C | 232 °C | log10 vapour pressure (mmHg): -1.07; ready biodegradability: readily biodegradable
CCCCCC/C=C\CCCCCCCC(=O)O | 0.2 °C | – | –
Cc1cc(C)nc(NC(=O)NS(=O)(=O)c2ccccc2C(=O)O)n1 | – | – | log10 Koc (L/kg): 1.8
Oc1cccc(Nc2ccccc2)c1 | 81.5 °C | 340 °C | –
Cc1ccc2c(c1)CC=C2 | – | 207 °C | –
CCC(C)CCc1ccccc1 (stereo unspecified) | – | 220 °C | –
CC(=O)Nc1ccccc1F | 78 °C | – | –
O=[N+]([O-])c1c(O)ccc2ccccc12 | 104 °C | – | –

SMILES | melting point | boiling point | further results
CC(=O)Oc1ccc(C)c(C)c1 | 22 °C | 235 °C | –
CNc1ccc(NC)c2c1C(=O)c1ccccc1C2=O | 220 °C | – | log10 vapour pressure (mmHg): -10.7
O=C(O)COc1cccc2ccccc12 | 196 °C | – | –
C#CC=CC=C | -81 °C | 83.5 °C | –
c1ccc(C2CCNCC2)cc1 | 60.5 °C | 257 °C | –
OCC(F)(F)C(F)(F)C(F)(F)C(F)(F)C(F)(F)C(F)(F)C(F)(F)F | – | 161 °C | –
Clc1cnccn1 | – | 154 °C | –
Clc1ccc(SSc2ccc(Cl)cc2)cc1 | 68 °C | – | –
Clc1sc(Cl)c(Cl)c1Cl | 30.5 °C | 233 °C | –
CCc1ncc(C)cc1C | – | 198 °C | –
CN(C)CCC=C1c2ccccc2CCc2ccccc21 | 196 °C | – | –
Cc1cccc(C)c1N(C)C | -36 °C | 196 °C | –
Ic1cc(I)c(I)c(I)c1I | 172 °C | – | –
ClC(Cl)C(Cl)Cl | -43.8 °C | 146 °C | log10 Henry constant (atm·m³/mol): -3.44; log10 Koc (L/kg): 1.9; log10 vapour pressure (mmHg): 0.665; ready biodegradability: not readily biodegradable; log10 BCF: 1.11; log10 biotransformation half-life (days): -0.67
O[C@@H](Cc1ccccc1)c1ccccc1 | 67 °C | – | –
O=C(O)c1cc([N+](=O)[O-])cc([N+](=O)[O-])c1O | 170 °C | – | –
CCCC(c1ccc(O)cc1)c1ccc(O)cc1 | 137 °C | – | –
Cc1ccccc1Oc1ccccc1[N+](=O)[O-] | 39.5 °C | – | –
CN1C(=O)CC[C@H]1c1cccnc1 | 41 °C | – | –
O[C@@H]1CCc2ccccc2C1 | 15.5 °C | – | –
CC(=O)Nc1cccc(O)c1 | 147 °C | – | –
COC(=O)c1ccoc1 | – | 160 °C | –
O=C1C(Cl)C(CCl)CN1c1cccc(C(F)(F)F)c1 (stereo unspecified) | 67.7 °C | – | log10 vapour pressure (mmHg): -5.48
c1ccc2c(c1)OCO2 | – | 172 °C | –
